# Results published in US10160771B2, “Hepatitis C virus inhibitors and uses thereof in preparation of drugs” (priority 2014, dated 2018).
# Assays:
# [1] = test system: HCV genotype 1b (HCV-1b) replicon cells; assay: HCV genotype 1b replicon luciferase assay (EC50); assay type: cell-based, hepatitis C virus genotype 1b (Con1 clone); conditions: 3 days, luciferase (Bright-Glo)
# Procedure: (§1) The EC50 and CC50 values of anti-HCV compounds were determined by HCV genotype 1a (HCV-1a) and 1B (HCV-1b) stable transfer replication (replicon) cells. The source of genotype 1a replicon is H77 clones containing K1691R, K2040R and S2204I adaptive mutations. The source of genotype 1b replicon is Con1 clones containing E1202G, T1280I and K1846T adaptive mutations.
# (§2) HCV 1a (HCV-1a) and 1b (HCV-1b) gene subtype replicon system contains the related HCV gene subtype non structural protein gene, G418 resistance gene NEO and luciferase gene, which results in that HCV related protein and luciferase can be stably expressed in cells. By detecting the level of expression of luciferase gene, the level of HCV replication can be determined. Therefore, the system is used as a model for screening the activity of anti-HCV compound in vitro.
# (§3) HCV Replicon Cell Lines: HCV-1a and HCV-1b Cells
# (§4) The compound powder was dissolved in 100% DMSO. Then the compound was diluted 5 times with 6 points, and added into the cell plate with Echo liquid handler. Ensure the final concentration of DMSO was 0.5%. Each compound was tested in double holes. Maximum initial concentration was 100, 10 or 1 nM, 5 times dilution, 6 points.
# (§5) b) Cell Culture (HCV-1a or HCV-1b Replicon Cell):
# (§6) 1) absorbing the culture supernatant of the cell culture and washing the cells with 10 mL PBS.
# (§7) 2) adding preheated pancreatin to the washed cell culture flasks, rotating culture bottle to make the bottom of the culture bottle uniformly covered by pancreatin, then placed into 37° C., 5% CO2 incubator to digest.
# (§8) 3) suspending cells in each T150 culture flask with 10-15 mL culture medium, absorbing 0.1 mL liquid and diluting 2 times by trypan blue solution as counted.
# (§9) 4) diluting cells to 8×10^4/mL with the culture medium, adding the diluted cells into the compound-containing 96-well plate (Greiner, Cat.#655090) (100 μL/well, 8000 cells/well) with automatic liquid separator (Thermo Scientific). Then place into a 37° C., 5% CO2 incubator for 3 days. Cell control well: no compound, only containing 0.5% DMSO.
# (§10) 6) then adding luciferase luminescence substrate Bright-Glo, after incubation for 5 minutes, detecting the luciferase activity by chemical luminescence detection system Envison (wavelength>700 nm); analyzing the anti-HCV inhibitory activity of the compounds according to luciferase data, which was used to calculate EC50 values.
# (§11) The EC50 or CC50 values were obtained by nonlinear fitting analysis on inhibition percentage (inh %) data with GraphPad Prism software.
# [2] = Cell Titer-fluor cell activity assay in HCV-1b replicon cells (CC50); assay type: cell-based
# Procedure: as §1, §3, §4, §5, §6, §7, §8, §9
# 5) adding chemiluminescent substrate Cell Titer-fluor to the cell well, after incubation for 30 minutes, detecting the signal by chemiluminescence detection system Envison (Ex at 405 nm and read at 515 nm). The effect of the compounds on the activity of HCV replicon cells was analyzed according to the luminescence data, which was used to calculate the CC50 values.
# as §11
# [3] = test system: HCV genotype 1a (HCV-1a) replicon cells; assay: HCV genotype 1a replicon luciferase assay (EC50); assay type: cell-based, hepatitis C virus genotype 1a (H77 clone); conditions: 3 days, luciferase (Bright-Glo)
# Procedure: as §1, §2, §3, §4, §5, §6, §7, §8, §9, §10, §11
SMILES,"EC50 ([1]; Hepatitis C virus, 72 h) [nM]",CC50 at 3 days [2] [nM],"EC50 ([3]; Hepatitis C virus, 72 h) [nM]",EC50 [1] [nM],EC50 [3] [nM]
COC(=O)N[C@H](C(=O)N1[C@H](c2ncc(-c3ccc(-c4ccc5cc(-c6cnc(C7CCCC[C@H]7C(=O)N(NC(=O)OC)C(C)C)[nH]6)ccc5c4)cc3)[nH]2)COC1(C)C)C(C)C (stereo partly drawn) [AA_072],10 to 100,> 10,–,–,–
COC(=O)N[C@@H](COC(C)(C)C)C(=O)N1CCC[C@H]1c1ncc(-c2ccc(-c3ccc(-c4ccc([C@@H]5CCCN5C(=O)[C@@H](NC(=O)OC)C(C)C)[nH]4)cc3)cc2)[nH]1 [AG_098],0.001 to 0.1,–,1 to 10,–,–
COC(=O)CNC(=O)[C@H](NC(=O)[C@@H]1[C@@H]2CC[C@@H](C2)[C@H]1c1ncc(-c2ccc(-c3ccc(-c4cnc([C@@H]5CCCN5C(=O)[C@@H](NC(=O)OC)C(C)C)[nH]4)cc3)cc2)[nH]1)C(C)C [AA_290_ENDOA2],0.101 to 1,–,10 to 100,–,–
COC(=O)N[C@H](C(=O)N1CCC[C@H]1c1ncc(-c2ccc(-c3ccc(-c4cnc([C@@H]5[C@H]6CC[C@H](C6)[C@H]5C(=O)N[C@H](C(=O)NCc5cccnc5)C(C)C)[nH]4)cc3)cc2)[nH]1)C(C)C [AA_296_ENDOA2],0.101 to 1,–,1 to 10,–,–
COC(=O)N[C@H](C(=O)N1CCC[C@H]1c1ncc(-c2ccc(-c3ccc(-c4cnc(C5=C(C(=O)N(NC(=O)OC)C(C)C)CCCC5)[nH]4)cc3)cc2)[nH]1)C(C)C [AA_014],1 to 10,> 100,–,–,–
COC(=O)N[C@H](C(=O)N1CCC[C@H]1c1ncc(-c2ccc(-c3ccc(-c4cnc(C5CCCC[C@@H]5C(=O)N(NC(=O)OC)C(C)C)[nH]4)c(F)c3)cc2)[nH]1)C(C)C (stereo partly drawn) [AA_118],1 to 10,> 10,–,–,–
COC(=O)NN(C(=O)C1=C(c2ncc(-c3ccc(-c4ccc(-c5cnc(C6=C(C(=O)N(NC(=O)OC)C(C)C)CCC6)[nH]5)cc4)cc3)[nH]2)CCC1)C(C)C [AA_033],10 to 100,–,10 to 100,–,–
COC(=O)N[C@H](C(=O)N1CCC[C@H]1c1ncc(-c2ccc(-c3ccc(-c4cnc([C@@H]5[C@H]6CC[C@H](C6)[C@H]5C(=O)NN5CCCC5=O)[nH]4)cc3)cc2)[nH]1)C(C)C [AA_294_ENDOA2],0.001 to 0.1,–,10 to 100,–,–
COC(=O)NN(C(=O)[C@@H]1C2C=CC(C2)C1c1ncc(-c2ccc(-c3ccc(-c4cnc(C5C6C=CC(C6)[C@@H]5C(=O)N(NC(=O)OC)C(C)C)[nH]4)cc3)cc2)[nH]1)C(C)C (stereo partly drawn) [AA_034],10 to 100,–,10 to 100,–,–
COC(=O)NC(C(=O)C1CCCCC1c1ncc(-c2ccc(-c3ccc(-c4[nH]c([C@@H]5CCCN5C(=O)[C@@H](NC(=O)OC)C(C)C)c5c4CCC5)cc3)cc2)[nH]1)C(C)C (stereo partly drawn) [AA_100],10 to 100,> 10,–,–,–
COC(=O)N[C@H](C(=O)N1CCC[C@H]1c1ncc(-c2ccc(-c3ccc(-c4[nH]c([C@@H]5CCCN5C(=O)[C@@H](NC(=O)OC)C(C)C)c5c4OCC5)cc3)cc2)[nH]1)C(C)C [AG_114_A],–,–,–,0.101 to 1,10 to 100
COC(=O)NC(C(=O)N1CCCC1c1[nH]c(-c2ccc(-c3ccc(-c4cnc(C5CCCC[C@@H]5C(=O)N(NC(=O)OC)C(C)C)[nH]4)cc3)cc2)c2c1CCC2)C1CCOCC1 (stereo partly drawn) [AL_003],10 to 100,> 10,–,–,–
COC(=O)N[C@H](C(=O)N1CC2(C[C@H]1c1ncc(-c3ccc(-c4ccc5cc(-c6cnc(C7CCCC[C@H]7C(=O)N(NC(=O)OC)C(C)C)[nH]6)ccc5c4)cc3)[nH]1)OCCO2)C(C)C (stereo partly drawn) [AA_073],1 to 10,> 10,–,–,–
COC(=O)N[C@H](C(=O)N1CCC[C@H]1c1cc(Cl)c(-c2ccc(-c3ccc(-c4cnc([C@@H]5CCCN5C(=O)[C@@H](NC(=O)OC)[C@@H](C)OC)[nH]4)cc3)cc2)[nH]1)[C@@H](C)OC [AG_095],0.001 to 0.1,–,0.101 to 1,–,–
COC(=O)N[C@H](C(=O)N1CCC[C@H]1c1ncc(-c2ccc(-c3ccc(-c4cnc(C5CCCC5C(=O)N(NC(=O)OC)C(C)C)[nH]4)cc3)cc2)[nH]1)C(C)C (stereo partly drawn) [AA_008],1 to 10,> 100,–,–,–
